Test results published in US20240174697A1, “PH-ACTIVABLE FLUORESCENT PROBES FOR TARGETING CELL ORGANELLES” (Purdue Research Foundation, priority 2021, published 2024).
Entries after “also recorded” stand apart in the source; their conditions may differ.

Tests used:
[1] = Solubility in aqueous medium / pH solutions; format: physicochemical; details: for solubility upon addition of pH solutions: final DMSO concentration 1%
[2] = Absorption and fluorescence spectra at different pH solutions, pKa; format: physicochemical; details: in a mixture of DMSO: acetonitrile
[3] = as above; format: physicochemical; details: for emission maximum: excitation 480 nm; for emission maximum / absorption maximum: pH solutions of phosphate buffer, 1% DMSO; for pH at which high fluorescence is shown: pH buffer solutions; for pKa: PBS buffer at varying pH, 1% (v/v) DMSO, probe 10 μM, room temperature
Description: Spectrum recorded at room temperature in PBS buffer at varying pH with 1% (v/v) of DMSO, in all cases probe concentration=10 μM.
Next, we investigated the absorption and fluorescent properties of LysoShine 1, LysoShine 2, and MitoShine (FIG. 2). The LysoShine 1 in different pH solutions of phosphate buffer (1% DMSO in 1M PBS) has an absorption centered around 500 nm and emission maximum at 505 nm with 480 nm excitation. […] We tested the mitochondrial targeting property of MitoShine (max. absorption 505 nm, max. emission 535 nm, excitation 480 nm). […] We also tested the photophysical property of the important synthetic intermediate compound 10 (absorption maximum 505 nm, max, emission 510 nm at excitation 480 nm).

BV2 microglia [4] = assay: Confocal imaging, localization of probes in BV2 microglia; format: cell-based, mouse; details: co-staining LysoTracker Red DND-99 / DAPI
Description: BV2 mouse microglia cells were generously gifted by Dr. Linda J. Van Eldik (University of Kentucky, USA). The BV-2 cell line was developed in the lab of Dr. Elisabetta Blasi at the University of Perugia, Italy. Cells were maintained at 37° C. and 5% CO2 in DMEM/Hams F-12 50/50 Mix supplemented with 10% Fetal Bovine Serum (FBS), 1% L-Glutamine, and 1% Penicillin/Streptomycin. For imaging experiments, 70,000 cells/2 mL/well were seeded on glass coverslips (Corning #12-553-450) in 6-well plates (Corning #08-772-1B). For flow cytometry experiments, 20,000 cells/0.5 mL were seeded in 24-well plates (Corning #3526).
(§1) The localization of the fluorescent probes was visualized using confocal microscopy. The cells were incubated with 10 μM probe for 2 hours and then the media was aspirated. The cells were then incubated with 100 nM LysoTracker (1 mM stock from Thermo #L7528) or with 0.5x MitoLite (1000-fold dilution from 500x stock of AAT Bioquest #22678) for 1.5 hours. The media was aspirated, and the cells were fixed with 4% paraformaldehyde for 10 mins followed by nuclear staining with 1 μM/mL DAPI for 5 mins. For BV2 microglia grown on glass coverslips, the coverslips were removed from the wells and transferred to glass slides with a drop of anti-fade reagent (Thermo Fisher Scientific #P36930). For primary mouse microglia grown in 35 mm glass-bottom dishes, the cells were treated with a few drops of the anti-fade reagent and taken for imaging. The images were captured on a Zeiss LSM 880 Upright Confocal microscope equipped with Plan-Apochromat 20x/0.8 objective.

BV2 microglia [5] = assay: Cellular uptake of the fluorescent probes; format: in vitro ADME, mouse
Description: FIG. 7 describes percent uptake efficiency of the fluorescent probes in BV2 microglia. Cellular uptake of the probe at different concentrations after two hours of incubation. The % uptake efficiency was determined as the percentage of probe taken up by cells out of the total amount of probe in the initial incubation solution. Bars depict n=3 data with SD.
Cellular uptake of the florescent probes was determined in-vitro as following: BV2 cells (20,000 cells/well) were seeded in a 96 well plate and cultured overnight at 37° C. in a 5% CO2 incubator. Next day, the media was removed, and the cells were treated with 1, 5, or 10 μM of the probes for 2 hours. After incubation, the supernatant was collected, and the absorbance was recorded at the respective absorbance maxima of the probe. This was compared with absorbance of the probe in media without cells. The percent cellular uptake was calculated as percentage of […]:
% Uptake Efficiency=1-[Asupernatant×100/Aprobe]

BV2 microglia [6] = assay: LDH cytotoxicity assay on BV2 microglia; format: cell-based, mouse; details: for cytotoxicity (LDH release): BV2
Description: (§2) The dried fluorescent probes powders were resuspended in cell grade DMSO to prepare 5 mM stock solutions. This stock was used to make a 1, 5, or 10 μM dilution of the probe in cell culture media. The diluted probe solutions were filtered through 0.22 µm filters before adding to the cells.
The cytotoxicity of the fluorescent probes was determined using the Invitrogen™ CyQUANT™ LDH Cytotoxicity Assay kit which measures the release of Lactate dehydrogenase (LDH) from the dead and dying cells. The assay was performed per the manufacturer's protocol. Briefly, BV2 cells (5000 cells/100 μL/well) were seeded in a 96 well plate and cultured for 24 hours at 37° C. in a 5% CO2 incubator. After 24 hours, the media was removed, and the cells were treated with 1, 5, or 10 μM of the probes for 2 or 24 hours of incubation. Three additional wells were treated with the given lysis buffer for 45 minutes (positive control). After the corresponding incubation period, the total LDH release was measured using a fluorescent plate reader. The cells without any probe treatment correspond to spontaneous LDH release and were taken as negative control and the cells treated with the lysis buffer correspond to maximum LDH release. The percentage cytotoxicity of the probes was determined as follows: […]

primary mouse microglia [7] = assay: Confocal imaging, localization of probes in primary microglia; format: cell-based; details: 10 μM probe 2 hours, co-staining LysoTracker / MitoLite / DAPI
Description: A detailed protocol for the isolation and culture of primary microglia from adult mouse brains is previously described^2. Briefly, CD11^+ primary microglia were isolated from adult C57BL/6 mice aged 5-7 months of age (both male and female sexes) and cultured as follows. Mice were euthanized with CO2 following the PACUC guidelines, perfused brains were removed and cut into small pieces before homogenizing them in DPBS++with 0.4% DNase-I on the tissue dissociator at 37° C. After filtering the cells through a 70 μm filter, myelin was removed two times, first using gradient centrifugation with Percoll PLUS reagent followed by the use of myelin removal beads on the magnetic column separators. After myelin removal, CD11^+ cells were selected from the single cell suspension using the CD11^+ beads as per the manufacturer's instructions. The CD11^+ cells were finally resuspended in microglia growth media, further diluted in TIC (TGF-β, IL-34, and cholesterol containing) media containing 2% FBS before seeding 0.1×10^6 cells/500 μL/well of a 24-well plate. The cells were maintained at 37° C. and 10% CO2 with half-media change every other day until the day of compound treatment (around 12-14 div). For confocal imaging experiments, around 50,000 cells/2 mL cells were sub-cultured at the center of 35 mm glass-bottom imaging dishes (FluoroDish™ #FD35).
as §1, with “For primary mouse microglia grown in 35 mm glass-bottom dishes, the cells were treated with a few drops of the anti-fade reagent and taken for imaging. The images were captured on a Zeiss LSM 880 Upright Confocal microscope equipped with Plan-Apochromat 20x/0.8 objective.” left out

primary mouse microglia [8] = assay: Flow cytometry analysis of probe fluorescence in live cells; format: cell-based
Excerpt: FIGS. 3A-3E. […] Modal corresponds to a percentage of the maximum count. […] US Ctrl is unstained control. Gating strategy and flow plots with commercial dyes in supporting information.
A detailed protocol for the isolation and culture of primary microglia from adult mouse brains is previously described^2. Briefly, CD11^+ primary microglia were isolated from adult C57BL/6 mice aged 5-7 months of age (both male and female sexes) and cultured as follows. Mice were euthanized with CO2 following the PACUC guidelines, perfused brains were removed and cut into small pieces before homogenizing them in DPBS++with 0.4% DNase-I on the tissue dissociator at 37° C. After filtering the cells through a 70 μm filter, myelin was removed two times, first using gradient centrifugation with Percoll PLUS reagent followed by the use of myelin removal beads on the magnetic column separators. After myelin removal, CD11^+ cells were selected from the single cell suspension using the CD11^+ beads as per the manufacturer's instructions. […]
Primary mouse microglia were treated with 1, 5, or 10 μM fluorescent probes for 2 hours for the cells to uptake the probe. […] Around 10-20 thousand cells were gated from the live cells in order to analyze the cellular fluorescence signal corresponding to the LysoShine/Lysotracker or Mitoshine/MitoLite probes.

BV2 microglia [9] = assay: MTT assay, metabolic activity of BV2 microglia; format: cell-based, mouse; details: 24 hours
Description: as §2
Murine microglial BV2 cells (10,000 cells/well) were seeded in a 96 well plate and cultured for 24 hours at 37° C. in a 5% CO2 incubator. Next day, the media was aspirated, and the cells were rinsed twice with PBS (pH 7.4) followed by treatment with 1, 5, or 10 μM of the probe solution made in DMSO (final DMSO concentration=0.05%) for 24 hours in the incubator. Next, the media was aspirated and 20 μL of 5 mg/mL 3-(4,5dimethylthiazol-2-yl)-2,5-diphenyltetrazolium bromide (MTT) solution was added to the cells and then incubated for three hours. The MTT solution was then removed and 100 μL DMSO was added to dissolve the violet formazan crystals. The plate was shaken for 5 minutes using an orbital shaker. The absorbance value at 450 nm was recorded and the percent cell metabolic activity was calculated as the ratio of sample absorbance to control absorbance.

[10] = 2 hour, any tested doses (1, 5, 10 μM)

SMILES | solubility in aqueous medium ([1]; aqueous medium) | solubility in DMSO: acetonitrile ([1]; mixture of DMSO: acetonitrile) | pH at which significant fluorescence is shown [2] | emission maximum [3] | pH at which high fluorescence is shown [3] | absorption maximum [3] | localization of the probe within cell organelles (BV2 microglia [4]) | cell permeability (BV2 microglia [5]; BV2 microglia (FIG. 7)) | cytotoxicity to BV2 cells (BV2 microglia [6]; BV2 cells) | solubility upon addition of pH solutions [1] | localization of the probe within cell organelles (primary mouse microglia [7]) | pKa [3] | cytotoxicity (LDH release) (BV2 microglia [6]; [10]) | fluorescent intensity within the cells (primary mouse microglia [8]; 10 μM, 2 hours) | uptake efficiency (BV2 microglia [5]; 2 hour treatment, 10 μM, BV2) | cellular metabolic activity (BV2 microglia [9]; 1 μM) | cellular metabolic activity (BV2 microglia [9]; 5 μM or higher) | cytotoxicity (LDH release) (BV2 microglia [6]; 2 hour, 1 and 5 μM) | cytotoxicity (LDH release) (BV2 microglia [6]; 24 hours, 10 μM and 5 μM) | live cells positive for probe and MitoLite (primary mouse microglia [8]; co-staining with MitoLite dye)
CCOC(=O)C1=C(C)C2=C(c3ccc(N(C)C)cc3)c3c(C)c(C(=O)OCC)c(C=Cc4ccc(O)c([N+](=O)[O-])c4)n3[B-](F)(F)[N+]2=C1C [Compound 6b, Diethyl (E)-10-(4-(Dimethylamino)phenyl)-5,5-difluoro-3-(4-hydroxy-3-nitrostyryl)-1,7,9-trimethyl-5H-414,514-dipyrrolo[1,2-c:2′,1′-f][1,3,2]diazaborinine-2,8-dicarboxylate] | sparingly soluble | soluble | less than 6 |  |  |  |  |  |  |  |  |  |  |  |  |  |  |  |  | 
CCOC(=O)C1=C(C)C2=C(c3ccc(NC(=O)CBr)cc3)c3c(C)c(C(=O)OCC)c(C)n3[B-](F)(F)[N+]2=C1C [Compound 10, Diethyl 10-(4-(2-bromoacetamido)phenyl)-5,5-difluoro-1,3,7,9-tetramethyl-5H-414,514-dipyrrolo[1,2-c:2′,1′-f][1,3,2]diazaborinine-2,8-dicarboxylate] |  |  |  | 510 nm | less than 3 | 505 nm | colocalized with nuclei staining dye DAPI | cell permeable | not cytotoxic |  |  |  |  |  |  |  |  |  |  | 
CCOC(=O)C1=C(C)C2=C(c3ccc(NC(=O)CN(CC)CC)cc3)c3c(C)c(C(=O)OCC)c(C)n3[B-](F)(F)[N+]2=C1C [LysoShine 1, Diethyl 10-(4-(2-(diethylamino)acetamido)phenyl)-5,5-difluoro-1,3,7,9-tetramethyl-5H-4λ^4, 5λ^4-dipyrrolo[1,2-c:2′, 1′-f][1,3,2]diazaborinine-2,8-dicarboxylate] |  |  |  | 505 nm | 4 | around 500 nm | co-colocalization |  |  | maintains its solubility | co-localized with the LysoTracker dye within the acidic lysosomes | 5.4 | did not show any cytotoxicity | higher fluorescent intensity than LysoShine 2 |  |  |  |  |  | 
CCOC(=O)C1=C(C)C2=C(c3ccc(NC(=O)CNCCN4CCOCC4)cc3)c3c(C)c(C(=O)OCC)c(C)n3[B-](F)(F)[N+]2=C1C [LysoShine 2, Diethyl 5,5-difluoro-1,3,7,9-tetramethyl-10-(4-(2-((2-morpholinoethyl)amino)acetamido)phenyl)-5H-4λ^4, 5λ^4-dipyrrolo[1,2-c:2′,1′-f][1,3,2]diaza-borinine-2,8-dicarboxylate] |  |  |  | 512 nm | less than 6 | 500 nm | co-colocalization |  |  | maintains its solubility | co-localized with the LysoTracker dye within the acidic lysosomes | 6.0 | did not show any cytotoxicity |  |  |  |  |  |  | 
CCOC(=O)C1=C(C)C2=C(c3ccc(NC(=O)C[P+](c4ccccc4)(c4ccccc4)c4ccccc4)cc3)c3c(C)c(C(=O)OCC)c(C)n3[B-](F)(F)[N+]2=C1C.[Br-] [MitoShine, (2-((4-(2,8-bis(ethoxycarbonyl)-5,5-difluoro-1,3,7,9-tetramethyl-5H-414,514-dipyrrolo[1,2-c:2′, 1′-f][1,3,2]diazaborinin-10-yl)phenyl)amino)-2-oxoethyl)triphenylphosphonium bromide] |  |  |  | 535 nm | 4 | 505 nm |  |  |  | maintains its solubility | co-localized with MitoLite; also recorded: colocalization of MitoShine in both mitochondrial as well as in lysosomal organelles | 4.4 |  |  | 30% | high cellular metabolic activity | 10% | no cytotoxicity | around 20% | around 87%
